The results in this text go back to US9938264B2, “Proteolysis targeting chimera compounds and methods of preparing and using same” (YALE UNIVERSITY, priority 2015, dated 2018).

One test addresses T1, c-ABL (Homo sapiens, UniProt P00519).
T1 construct: endogenous in cells; host or cells: K562 (ATCC)
The test is described as follows: c-ABL degradation in K562 cells by immunoblot. In kind it is cell-based. To be noted: for concentration from which degradation of c-ABL is observed: 24 hrs, immunoblot; for decrease (degradation) of c-ABL: at 1 μM PROTAC. Here is the method: (§1) K562 cells were obtained from ATCC and were grown at 37° C., 5% CO2 in Iscove's Modified Dulbecco's Media (IMDM) supplemented with 10% FBS, 100 U/mL penicillin and 100 μg/mL streptomycin. HEK293 and SK-BR-3 cells were obtained from ATCC and were grown at 37° C., 5% CO2 in Dulbecco's Modified Eagle's Media (DMEM) supplemented with 10% FBS, 100 U/mL penicillin and 100 μg/mL streptomycin.
(§2) K562 cells (1-1.5×10^6) were treated for 24 hours with the indicated compounds solubilized in DMSO. The cells were collected at 300 g for 3 min. […] The total protein concentrations were determined by Pierce BCA Protein Assay and […] of protein was loaded onto 10% Tris-Glycine gels. After standard gel electrophoresis, the separated proteins were transferred to nitrocellulose by wet transfer. The immunoblots were then processed by standard procedures and incubated with the respective antibodies. Band intensities were quantified by Bio-Rad's Image Lab software.
For orientation: Immunoblotting shows a protein as a band on a membrane.

The target in the next test is T2, BCR-ABL (Homo sapiens, UniProt P00519+P11274).
T2 construct: endogenous in cells; host or cells: K562 (ATCC)
The test is described as follows: BCR-ABL degradation in K562 cells by immunoblot. Format: cell-based. Here is the method: as §1, §2

Test [1] has as its target T3, non-phosphorylated c-ABL kinase domain (Homo sapiens, UniProt P00519).
T3 construct: phosphorylated and non-phosphorylated c-ABL kinase domain; purchased DiscoverRx Corporation (KinomeScan platform)
T3 sequence (P00519 242-493 limits assumed): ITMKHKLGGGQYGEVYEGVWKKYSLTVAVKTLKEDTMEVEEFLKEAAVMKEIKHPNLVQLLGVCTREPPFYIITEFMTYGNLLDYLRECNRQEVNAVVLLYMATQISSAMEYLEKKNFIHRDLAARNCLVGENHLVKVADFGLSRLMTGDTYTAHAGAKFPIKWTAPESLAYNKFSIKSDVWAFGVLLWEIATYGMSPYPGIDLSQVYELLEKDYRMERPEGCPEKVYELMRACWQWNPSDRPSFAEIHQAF
Kind of test: KinomeScan in vitro binding affinity (Kd), non-phosphorylated c-ABL kinase domain. To be noted: Table 2, read-out: ABL (non-phosphorylated). Here is the method: (§3) PROTAC in vitro binding affinities (Kd) to phosphorylated and non-phosphorylated c-ABL kinase domain were determined using the KinomeScan platform (DiscoverRx Corporation). The compounds were solubilized in DMSO and sent to DiscoverRx Corporation as a 10 μM stock solution.

Test [2] addresses T4, phosphorylated c-ABL kinase domain (Homo sapiens, UniProt P00519).
T4 construct: phosphorylated and non-phosphorylated c-ABL kinase domain; purchased DiscoverRx Corporation (KinomeScan platform)
T4 sequence (P00519 242-493 limits assumed): T3 sequence (P00519 242-493 limits assumed)
The test is described as follows: KinomeScan in vitro binding affinity (Kd), phosphorylated c-ABL kinase domain. To be noted: Table 2, read-out: ABL (phosphorylated). Here is the method:
as §3

pKd: −log10 of the molar value.

T1 sequence (P00519 whole entry): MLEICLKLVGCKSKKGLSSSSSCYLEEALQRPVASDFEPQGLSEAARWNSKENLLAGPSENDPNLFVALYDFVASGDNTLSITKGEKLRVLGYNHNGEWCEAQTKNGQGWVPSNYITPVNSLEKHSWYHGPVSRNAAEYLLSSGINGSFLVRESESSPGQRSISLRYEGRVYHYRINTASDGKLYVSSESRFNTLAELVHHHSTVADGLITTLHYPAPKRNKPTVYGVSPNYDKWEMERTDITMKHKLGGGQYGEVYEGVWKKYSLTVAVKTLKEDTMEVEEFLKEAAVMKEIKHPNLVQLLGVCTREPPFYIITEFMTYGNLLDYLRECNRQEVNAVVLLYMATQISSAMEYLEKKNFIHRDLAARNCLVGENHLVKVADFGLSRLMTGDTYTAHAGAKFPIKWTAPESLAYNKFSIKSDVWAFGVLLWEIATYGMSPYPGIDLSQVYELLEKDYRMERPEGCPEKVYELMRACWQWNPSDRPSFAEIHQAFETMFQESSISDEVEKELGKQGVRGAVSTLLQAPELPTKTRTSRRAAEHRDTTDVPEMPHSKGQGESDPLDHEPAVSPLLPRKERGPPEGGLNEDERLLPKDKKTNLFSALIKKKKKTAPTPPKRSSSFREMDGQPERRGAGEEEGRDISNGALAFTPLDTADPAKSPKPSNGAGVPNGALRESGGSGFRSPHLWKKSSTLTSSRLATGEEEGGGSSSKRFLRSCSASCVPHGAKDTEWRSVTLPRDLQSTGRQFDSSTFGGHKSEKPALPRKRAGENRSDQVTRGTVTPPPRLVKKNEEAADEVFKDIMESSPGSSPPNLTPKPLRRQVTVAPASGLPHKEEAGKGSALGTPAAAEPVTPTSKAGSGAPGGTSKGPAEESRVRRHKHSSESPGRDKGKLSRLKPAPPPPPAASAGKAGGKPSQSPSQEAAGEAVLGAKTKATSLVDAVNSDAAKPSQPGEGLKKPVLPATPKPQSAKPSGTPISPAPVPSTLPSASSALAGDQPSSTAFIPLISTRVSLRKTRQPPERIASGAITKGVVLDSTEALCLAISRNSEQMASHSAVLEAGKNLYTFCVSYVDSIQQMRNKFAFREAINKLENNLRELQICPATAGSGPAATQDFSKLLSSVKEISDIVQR
T2 sequence (P11274+P00519 fused, change not shown): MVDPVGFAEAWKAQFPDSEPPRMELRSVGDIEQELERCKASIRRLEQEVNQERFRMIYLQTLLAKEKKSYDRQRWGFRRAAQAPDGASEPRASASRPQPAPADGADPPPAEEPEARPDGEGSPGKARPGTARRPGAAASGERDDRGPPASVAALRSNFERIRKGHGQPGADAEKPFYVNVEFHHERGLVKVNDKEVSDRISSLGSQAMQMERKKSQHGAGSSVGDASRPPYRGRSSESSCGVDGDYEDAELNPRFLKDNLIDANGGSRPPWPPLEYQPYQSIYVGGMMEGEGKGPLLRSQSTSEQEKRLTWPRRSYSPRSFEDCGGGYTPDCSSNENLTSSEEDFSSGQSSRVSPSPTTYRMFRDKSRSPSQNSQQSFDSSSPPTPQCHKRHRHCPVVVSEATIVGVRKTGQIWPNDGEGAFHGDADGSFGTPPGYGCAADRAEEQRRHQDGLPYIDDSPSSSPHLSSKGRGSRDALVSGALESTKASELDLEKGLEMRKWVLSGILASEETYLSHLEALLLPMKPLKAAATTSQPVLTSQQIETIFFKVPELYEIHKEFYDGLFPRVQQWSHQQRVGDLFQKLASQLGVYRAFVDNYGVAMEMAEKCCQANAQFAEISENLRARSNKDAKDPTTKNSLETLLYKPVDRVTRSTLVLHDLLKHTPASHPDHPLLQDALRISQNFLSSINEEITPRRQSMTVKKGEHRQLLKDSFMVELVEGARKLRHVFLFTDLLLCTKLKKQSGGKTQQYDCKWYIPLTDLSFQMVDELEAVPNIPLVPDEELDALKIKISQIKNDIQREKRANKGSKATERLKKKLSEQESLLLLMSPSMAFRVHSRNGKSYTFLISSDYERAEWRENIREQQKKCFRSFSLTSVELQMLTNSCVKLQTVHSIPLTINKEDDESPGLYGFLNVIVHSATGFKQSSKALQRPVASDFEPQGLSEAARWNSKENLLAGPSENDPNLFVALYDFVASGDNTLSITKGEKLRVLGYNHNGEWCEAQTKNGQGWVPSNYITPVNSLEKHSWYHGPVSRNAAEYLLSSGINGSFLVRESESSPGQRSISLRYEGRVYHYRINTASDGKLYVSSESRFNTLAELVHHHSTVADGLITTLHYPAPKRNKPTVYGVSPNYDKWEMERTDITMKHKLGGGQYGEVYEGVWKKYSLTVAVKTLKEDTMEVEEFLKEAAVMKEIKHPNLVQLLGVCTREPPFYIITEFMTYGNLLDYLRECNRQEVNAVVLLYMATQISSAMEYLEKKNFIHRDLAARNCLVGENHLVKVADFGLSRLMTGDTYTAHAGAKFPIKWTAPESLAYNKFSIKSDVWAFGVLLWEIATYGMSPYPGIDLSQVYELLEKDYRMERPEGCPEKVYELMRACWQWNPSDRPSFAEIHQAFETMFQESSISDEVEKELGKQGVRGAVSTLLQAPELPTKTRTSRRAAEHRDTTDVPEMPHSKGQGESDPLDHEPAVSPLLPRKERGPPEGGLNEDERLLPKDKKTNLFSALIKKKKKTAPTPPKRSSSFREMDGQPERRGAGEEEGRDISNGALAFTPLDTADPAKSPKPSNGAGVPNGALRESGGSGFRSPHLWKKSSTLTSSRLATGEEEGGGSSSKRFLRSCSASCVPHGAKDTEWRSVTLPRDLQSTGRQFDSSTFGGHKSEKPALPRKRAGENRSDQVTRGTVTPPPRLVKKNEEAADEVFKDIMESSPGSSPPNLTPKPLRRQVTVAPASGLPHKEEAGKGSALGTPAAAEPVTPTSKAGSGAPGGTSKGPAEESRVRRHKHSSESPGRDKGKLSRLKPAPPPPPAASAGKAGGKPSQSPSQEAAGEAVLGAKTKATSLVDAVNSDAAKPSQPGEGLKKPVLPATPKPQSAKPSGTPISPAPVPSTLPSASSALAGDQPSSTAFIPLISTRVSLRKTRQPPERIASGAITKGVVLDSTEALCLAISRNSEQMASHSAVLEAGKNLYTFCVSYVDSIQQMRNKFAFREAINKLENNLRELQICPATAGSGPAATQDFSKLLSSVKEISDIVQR
T2 sequence (Q96SW2 whole entry, change not shown, further chain): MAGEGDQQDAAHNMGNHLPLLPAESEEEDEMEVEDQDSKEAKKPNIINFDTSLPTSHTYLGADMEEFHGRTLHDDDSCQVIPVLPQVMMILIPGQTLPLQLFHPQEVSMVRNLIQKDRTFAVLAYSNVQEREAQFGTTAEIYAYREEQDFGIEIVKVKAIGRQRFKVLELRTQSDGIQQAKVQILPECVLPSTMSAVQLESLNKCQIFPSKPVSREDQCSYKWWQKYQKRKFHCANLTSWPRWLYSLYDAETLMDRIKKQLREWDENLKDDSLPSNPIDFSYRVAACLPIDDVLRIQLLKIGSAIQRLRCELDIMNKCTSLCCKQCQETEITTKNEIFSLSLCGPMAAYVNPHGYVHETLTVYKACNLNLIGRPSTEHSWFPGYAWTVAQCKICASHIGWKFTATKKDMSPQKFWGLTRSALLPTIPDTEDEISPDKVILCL
T2 sequence (Q16531 whole entry partner): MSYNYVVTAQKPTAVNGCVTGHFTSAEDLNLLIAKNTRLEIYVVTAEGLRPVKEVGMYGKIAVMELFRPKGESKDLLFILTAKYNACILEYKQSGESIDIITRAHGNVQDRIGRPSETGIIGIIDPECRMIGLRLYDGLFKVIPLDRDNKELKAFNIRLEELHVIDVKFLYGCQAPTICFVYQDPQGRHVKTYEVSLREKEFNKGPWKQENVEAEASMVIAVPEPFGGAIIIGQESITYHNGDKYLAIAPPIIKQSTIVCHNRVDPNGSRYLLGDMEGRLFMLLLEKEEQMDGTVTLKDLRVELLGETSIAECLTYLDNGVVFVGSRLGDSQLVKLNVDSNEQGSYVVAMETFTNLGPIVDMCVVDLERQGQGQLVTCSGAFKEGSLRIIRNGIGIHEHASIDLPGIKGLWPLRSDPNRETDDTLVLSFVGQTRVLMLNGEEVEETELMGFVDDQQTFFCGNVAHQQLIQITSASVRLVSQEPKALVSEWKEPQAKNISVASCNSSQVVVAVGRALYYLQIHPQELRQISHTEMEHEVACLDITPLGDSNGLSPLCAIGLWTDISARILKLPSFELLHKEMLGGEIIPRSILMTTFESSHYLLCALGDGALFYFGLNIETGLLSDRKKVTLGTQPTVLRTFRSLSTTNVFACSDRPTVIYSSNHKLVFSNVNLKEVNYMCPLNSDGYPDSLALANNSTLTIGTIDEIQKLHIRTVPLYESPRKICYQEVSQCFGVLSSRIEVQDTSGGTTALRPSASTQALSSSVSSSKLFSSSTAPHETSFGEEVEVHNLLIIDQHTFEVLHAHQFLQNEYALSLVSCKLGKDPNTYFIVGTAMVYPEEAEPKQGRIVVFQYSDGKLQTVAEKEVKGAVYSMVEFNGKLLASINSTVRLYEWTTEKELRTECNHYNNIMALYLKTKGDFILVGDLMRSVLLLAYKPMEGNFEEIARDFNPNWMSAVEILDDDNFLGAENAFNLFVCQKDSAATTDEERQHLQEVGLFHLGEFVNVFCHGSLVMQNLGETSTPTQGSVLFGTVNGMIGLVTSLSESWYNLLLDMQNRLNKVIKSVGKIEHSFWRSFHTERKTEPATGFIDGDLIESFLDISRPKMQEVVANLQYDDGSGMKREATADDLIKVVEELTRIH

As to `Cc1nc(Nc2ncc(C(=O)Nc3c(C)cccc3Cl)s2)cc(N2CCN(CCCCCCOCCOCCOCCOCCOCCOCC(=O)N[C@H](C(=O)N3C[C@H](O)C[C@H]3C(=O)NCc3ccc(-c4scnc4C)cc3)C(C)(C)C)CC2)n1` [DAS-6-(2-)5-2-VHL, N-(2-chloro-6-methylphenyl)-2-((6-(4-((S)-3-((2S,4R)-4-hydroxy-2-((4-(4-methylthiazol-5-yl)benzyl)carbamoyl)pyrrolidine-1-carbonyl)-2,2-dimethyl-5-oxo-7,10,13,16,19,22-hexaoxa-4-azaoctacosan-28-yl)piperazin-1-yl)-2-methylpyrimidin-4-yl)amino)thiazole-5-carboxamide], the “concentration from which degradation of c-ABL is observed” value (from here on “concentration from which degradation”) at c-ABL was not below 1 µM.
At c-ABL (at 2.5 μM), “6-(2-(2-((6-(4-(3-((3-cyano-4-((2,4-dichloro-5-methoxyphenyl)amino)-6-methoxyquinolin-7-yl)oxy)propyl)piperazin-1-yl)hexyl)oxy)ethoxy)ethoxy)-N-(2-(2,6-dioxopiperidin-3-yl)-1,3-dioxoisoindolin-4-yl)hexanamide [BOS-6-2-2-6-CRBN]” returned a c-ABL degradation of more than 90%. Further, on BCR-ABL (at 2.5 μM), the BCR-ABL degradation is more than 80%.
Consider `Cc1nc(Nc2ncc(C(=O)Nc3c(C)cccc3Cl)s2)cc(N2CCN(CCCCCCOCCCCCOCCCCCC(=O)N[C@H](C(=O)N3C[C@H](O)C[C@H]3C(=O)NCc3ccc(-c4scnc4C)cc3)C(C)(C)C)CC2)n1` [DAS-6-5-6-VHL, N-(2-chloro-6-methylphenyl)-2-((6-(4-(6-((5-((6-(((S)-1-((2S,4R)-4-hydroxy-2-((4-(4-methylthiazol-5-yl)benzyl)carbamoyl)pyrrolidin-1-yl)-3,3-dimethyl-1-oxobutan-2-yl)amino)-6-oxohexyl)oxy)pentyl)oxy)hexyl)piperazin-1-yl)-2-methylpyrimidin-4-yl)amino)thiazole-5-carboxamide], for which the pKd in test [1] is 8.59; in test [2], 8.89. Further, the “concentration from which degradation” value on c-ABL is not below 1 µM.
For the compound `Cc1nc(Nc2ncc(C(=O)Nc3c(C)cccc3Cl)s2)cc(N2CCN(CCCCCCOCCOCCOCCCCCC(=O)Nc3cccc4c3C(=O)N(C3CCC(=O)NC3=O)C4=O)CC2)n1` (centres unmarked) [DAS-6-2-2-6-CRBN, N-(2-chloro-6-methylphenyl)-2-((6-(4-(6-(2-(2-((6-((2-(2,6-dioxopiperidin-3-yl)-1,3-dioxoisoindolin-4-yl)amino)-6-oxohexyl)oxy)ethoxy)ethoxy)hexyl)piperazin-1-yl)-2-methylpyrimidin-4-yl)amino)thiazole-5-carboxamide], the pKd in test [1] is 9.22. The “decrease (degradation) of c-ABL” value on c-ABL is on record as more than 85%. In addition, the BCR-ABL degradation at BCR-ABL (at 1 μM PROTAC) was more than 60%.
With `Cc1nc(Nc2ncc(C(=O)Nc3c(C)cccc3Cl)s2)cc(N2CCN(CCCCCCOCCOCC(=O)N[C@H](C(=O)N3C[C@H](O)C[C@H]3C(=O)NCc3ccc(-c4scnc4C)cc3)C(C)(C)C)CC2)n1` [DAS-6-2-2-VHL, N-(2-chloro-6-methylphenyl)-2-((6-(4-(6-(2-(2-(((S)-1-((2S,4R)-4-hydroxy-2-((4-(4-methylthiazol-5-yl)benzyl)carbamoyl)pyrrolidin-1-yl)-3,3-dimethyl-1-oxobutan-2-yl)amino)-2-oxoethoxy)ethoxy)hexyl)piperazin-1-yl)-2-methylpyrimidin-4-yl)amino)thiazole-5-carboxamide], the “concentration from which degradation” value at c-ABL was not below 1 µM.
As for `Cc1nc(Nc2ncc(C(=O)Nc3c(C)cccc3Cl)s2)cc(N2CCN(CCCCCCOCCOCCOCCCCCC(=O)N[C@H](C(=O)N3C[C@H](O)C[C@H]3C(=O)NCc3ccc(-c4scnc4C)cc3)C(C)(C)C)CC2)n1` [DAS-6-2-2-6-VHL, N-(2-chloro-6-methylphenyl)-2-((6-(4-((S)-3-((2S,4R)-4-hydroxy-2-((4-(4-methylthiazol-5-yl)benzyl)carbamoyl)pyrrolidine-1-carbonyl)-2,2-dimethyl-5-oxo-11,14,17-trioxa-4-azatricosan-23-yl)piperazin-1-yl)-2-methylpyrimidin-4-yl)amino)thiazole-5-carboxamide], in test [1], the pKd was 9.04. Further, the pKd in test [2] is 9.33. At c-ABL, the “concentration from which degradation” value was not below 1 µM and the “decrease (degradation) of c-ABL” value is more than 65%.
